In PubChem BioAssay (NCI):
“And” between values parts separate entries of the source, which are not always exact repeats. Equal entries are not always repeated.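 Cells were grown in 96-well plates and exposed to each compound for 48 hours at five concentrations; endpoints were interpolated linearly between bracketing concentrations, or set to the highest concentration if not reached. Here, GI50 denotes the concentration required for 50% inhibition of growth. The concentration for full growth arrest is given as TGI.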

Experiments:
Assay in all cases: inhibition of tumour cell growth, NCI panel, 48 h
[1] = test system: NCI/ADR-RES ovarian
[2] = test system: IGROV1 ovarian
[3] = test system: LOX IMVI melanoma
[4] = test system: RPMI-8226 leukemia
[5] = test system: DU-145 prostate
[6] = test system: K-562 leukemia
[7] = test system: MOLT-4 leukemia
[8] = test system: OVCAR-3 ovarian
[9] = test system: CCRF-CEM leukemia
[10] = test system: NCI-H460 lung

| Structure (SMILES) | TGI [1] [µM] | TGI [2] [µM] | TGI [3] [µM] | TGI [4] | TGI [5] [µM] | TGI [6] [µM] | TGI [7] | TGI [8] [µM] | TGI [9] [µM] | TGI [10] [µM] | GI50 [1] [µM] | GI50 [2] [µM] | GI50 [3] | GI50 [4] [µM] | GI50 [5] [µM] | GI50 [6] [µM] | GI50 [7] [µM] | GI50 [8] [µM] | GI50 [9] | GI50 [10] [µM] |
| --- | --- | --- | --- | --- | --- | --- | --- | --- | --- | --- | --- | --- | --- | --- | --- | --- | --- | --- | --- | --- |
| COc1ccc(C2=C(Cl)C(=O)O/C2=C\c2ccc(OC)c(Br)c2)cc1Cl | 88.6 | > 100 | > 100 | > 100 µM | > 100 | > 100 | > 100 µM | 47 | 79.2 | > 100 |  |  |  |  |  |  |  |  |  |  |
| Cc1nnc2n1-c1ccccc1N(Cc1ccccc1)CC2 | 69.2 | > 100 | > 100 | 58.3 µM | > 100 | > 100 | 89.5 µM | > 100 | 90.3 | > 100 |  |  |  |  |  |  |  |  |  |  |
| Cn1nc2c(c1N)Cc1c(nn(C)c1N)-c1ccccc1-2 | > 100 | > 100 | > 100 | > 100 µM | > 100 | > 100 | > 100 µM | > 100 | > 100 | > 100 |  |  |  |  |  |  |  |  |  |  |
| Cc1cc(OCc2nnc3sc(NC(=O)c4ccccc4)nn23)ccc1Cl | > 100 | 68 | 78.7 | 69.2 µM | 58.4 | > 100 | > 100 µM | > 100 | > 100 | > 100 |  |  |  |  |  |  |  |  |  |  |
| COc1cc2c3c(cc(Cl)nc3c1OC)C(=O)C(=O)N2 | 53.1 | 25.1 | 25.9 | > 100 µM | 30.8 | > 100 | > 31.2 µM | 32.5 | 8.21 | 42.7 |  |  |  |  |  |  |  |  |  |  |
| CCOC(=O)/C=C(/C=C\COC1CCCCO1)c1ccccc1 (configuration not stated) | 95.7 | > 100 | 30.9 | > 100 µM | > 100 | > 100 | 80.3 µM | 80.8 | > 100 | > 100 |  |  |  |  |  |  |  |  |  |  |
| C=C(C)[C@H]1CC(=O)/C(C)=C\CC/C(C)=C/CC[C@@]2(C)O[C@@H]2C1 | 56 | > 100 | 32.2 | 52.1 µM | 33.4 | > 100 | > 100 µM | 43.9 | > 100 | 33.1 |  |  |  |  |  |  |  |  |  |  |
| Cc1cc(S(=O)(=O)Nc2n[nH]c(Nc3ccccc3)n2)c(SCC(=O)O)cc1Cl | > 100 | > 100 | > 100 | > 100 µM | > 100 | > 100 | > 100 µM | > 100 | > 100 | > 100 |  |  |  |  |  |  |  |  |  |  |
| CCC(=O)Nc1ccc(NS(=O)(=O)c2ccc(Cl)cc2)cc1 | > 100 | > 100 | > 100 | 54.3 µM | > 100 | > 100 | > 100 µM | > 100 | > 100 | > 100 |  |  |  |  |  |  |  |  |  |  |
| O=CN1CCN(C(=O)c2ccco2)C1=S | 75.3 | 25.3 | 14.8 | 8.96 µM | 11.6 | 29.5 | 35 µM | 15.4 | > 37.1 | 42.1 |  |  |  |  |  |  |  |  |  |  |
| CCOc1ccc(N=Nc2ccc3cc(/C(C)=N/NC(=O)/C(C#N)=C\c4ccc(N(CCC#N)CCC#N)cc4)c(=O)oc3c2)cc1 | > 10 | > 10 | > 10 | > 10 µM | > 10 | > 10 | > 10 µM | > 10 | > 10 | > 10 |  |  |  |  |  |  |  |  |  |  |
| O=C1/C(=C/c2ccncc2)C(n2cccc2)c2c(Br)sc(Br)c21 (configuration not stated) | 51.2 | 4.67 | 4.54 | 7.2 µM | 12.9 | 6.91 | 4.64 µM | 3.38 | 4.99 | 18.1 |  |  |  |  |  |  |  |  |  |  |
| CCOC(=O)Cn1nnc2cc(Nc3c(C)[n+]([O-])c4cc(F)c(OCC)cc4[n+]3[O-])ccc21 | > 100 | > 100 | > 100 | > 100 µM | > 100 | > 100 | > 100 µM | > 100 | > 100 | > 100 |  |  |  |  |  |  |  |  |  |  |
| O=C(/C=C\Nc1ccccc1O)C(F)(F)F | > 100 | > 100 | > 100 | > 100 µM | > 100 | > 100 | > 100 µM | 87 | > 100 | > 100 |  |  |  |  |  |  |  |  |  |  |
| CCN(CCCCCCCCCCN1CC(=O)N(CCCCCCCCCCN(CC)Cc2ccccc2OC)CC1=O)Cc1ccccc1OC | 3.24 | 3.62 | 1.93 | 3.1 µM | 2.78 | 12 | 8.04 µM | 2.48 | 10.1 | 3.62 | 1.64 | 1.57 | 0.587 µM | 0.812 | 1.39 | 0.388 | 1.8 | 1.18 | 2.11 µM | 1.54 |
| COC(=O)C1=C(C)NC(C)=C(C(=O)OC)C1c1cccc(N=O)c1 | 51 | 30.6 | 31.6 | > 100 µM | 29.7 | > 100 | > 100 µM | 29 | > 100 | 31 |  |  |  |  |  |  |  |  |  |  |
| O=[N+]([O-])/C(Cl)=C(/C(Cl)=C(Cl)Cl)N1CCCCC1 | 19.1 | 23.4 | 25.5 | 18.2 µM | 27 | 25.3 | 11.7 µM | 22.8 | 19.7 | 43 |  |  |  |  |  |  |  |  |  |  |
| CC(=O)OCC(=O)O[C@@H]1[C@H]2[C@@H](OC(=O)c3ccccc3)[C@@H](C)C[C@]2(O)[C@H](OC(C)=O)[C@@]2(C)C[C@]1(OC(C)=O)C[C@H]1C(=O)C(C)(C)[C@@H](OC(C)=O)[C@@H]12 | > 25 | > 25 | > 25 | > 25 µM | > 25 | > 25 | > 25 µM | > 25 | > 25 | > 25 |  |  |  |  |  |  |  |  |  |  |
| CCOc1ccc(NCC2CC/C(=C\C=C\c3ccccc3)C2=O)cc1 (configuration not stated) | > 75.3 | 17.5 | 23.5 | > 100 µM | > 93.3 | > 100 | > 42.9 µM | 34.4 | > 100 | > 80.8 |  |  |  |  |  |  |  |  |  |  |
| COc1ccc(C2Oc3c(OC)cc(CCCO)cc3C2CO)cc1OC (configuration not stated) | > 100 | > 100 | > 100 | 60.4 µM and > 100 µM | > 100 | > 100 | 96.7 µM and > 100 µM | > 100 | > 100 | > 100 |  |  | > 100 µM and 17 µM |  |  |  |  |  | 37.9 µM and > 100 µM |  |
| S=c1[nH]nc(Cn2c3ccc(Br)cc3c3nc4ccccc4nc32)n1C1CCCCC1 | > 92 | > 100 | 23 | 59.4 µM | > 100 | > 100 | 28.6 µM | > 59.7 | 84.1 | > 100 |  |  |  |  |  |  |  |  |  |  |
| Cc1nc(SCC(N)=O)c2sc(=S)n(-c3ccccc3)c2n1 | > 10 | > 10 | > 10 | > 10 µM | > 10 | > 10 | > 10 µM | > 10 | > 10 | > 10 |  |  |  |  |  |  |  |  |  |  |
| CNC(=S)NNc1ncnc2c1c(-c1ccc(Cl)cc1)cn2-c1ccc(C)cc1 | 34.4 | 25 | 33.5 | 75.9 µM | 43.4 | > 100 | > 100 µM | 24 | > 100 | 17.8 |  |  |  |  |  |  |  |  |  |  |
| O=C1CC(c2ccccc2Cl)C2(C(=O)NC(=O)NC2=O)C(c2ccccc2Cl)C1 (configuration not stated) | > 100 | 95.9 | > 100 | > 100 µM | > 100 | > 100 | > 100 µM | > 100 | > 100 | > 100 |  |  |  |  |  |  |  |  |  |  |
| CC1(C)OC[C@@H](C[C@H](O)COCc2ccccc2)O1 | > 100 | > 100 | > 100 | > 100 µM | > 100 | > 100 | > 100 µM | > 100 | > 100 | > 100 |  |  |  |  |  |  |  |  |  |  |
| O=c1c(-c2ccccc2)c(SCCN2CCCCCC2)n(-c2ccccc2)c(=S)n1-c1ccccc1 | > 100 | > 100 | > 100 | > 100 µM | 66.1 | 93.9 | 57.5 µM | > 100 | 29.4 | > 100 |  |  |  |  |  |  |  |  |  |  |
| O=C1CS/C(=N/N=C/c2cn(Cc3ccc(Cl)cc3Cl)c3ccccc23)N1 | > 100 | > 100 | > 100 | > 100 µM | > 100 | > 100 | > 100 µM | > 100 | 56.4 | > 100 |  |  |  |  |  |  |  |  |  |  |
| Clc1cc(C(c2cc(Cl)sc2Cl)c2cc(Cl)sc2Cl)c(Cl)s1 | > 100 | > 100 | > 100 | > 100 µM | > 100 | > 100 | > 100 µM | > 100 | > 100 | > 100 |  |  |  |  |  |  |  |  |  |  |
